Several values for one entry are separate records, joined by “and”; a condition that tells them apart may be missing. Identical values can stand only once. Like-named read-outs stand apart in the source and are kept apart here.
Columns and labels:
[1] = system: DHBV; assay: In vivo replication of DHBV in chronically infected Pekin ducks; serum viral DNA by slot blot hybridization
Protocol: A sample of 9-0-methyloximinyl erythromycin A (EMO) in solution at a concentration of 100 mg/ml in dimethyl sulfoxide (DMSO) was administered subcutaneously at a dose of 15 mg/kg/day for 14 days to a group of 10-week old Pekin ducks chronically infected with DHBV (experimentally infected as described by Marion et al., "Liver Disease Associated with Duck Hepatitis B Virus Infection of Domestic Ducks", Proc. Natl. Acad. Sci. USA (1984) 81:898). Another group of 10-week old Pekin ducks were used as a control and treated with the same dose of DMSO alone. In vivo replication of virus was assessed by measuring levels of DHBV virus in the serum of infected animals before, during, and after treatment. Virus levels in serum were determined by quantitating the DNA of the virus by slot blot hybridization. Ten µl of each serum was made up to 0.1 M with NaOH to disrupt virus and denature the viral DNA. The samples were spotted on nylon membrane which binds single stranded DNA. The filter-bound viral DNA was detected by hybridization with a DHBV [³²P]- DNA probe followed by autoradiography. The quantity of viral DNA in each serum sample, expressed as picograms of viral DNA/ml serum, was determined by comparing densitometer tracings of the exposed area of film overlying each serum spot on the nylon membrane with a standard curve derived from densitometer tracings for known amounts of DHBV DNA similarly spotted on the same nylon membrane.
EMO was administered beginning on day 8 for 14 days at the rate of 15 mg/kg/day. The low level was retained until day 22 (when EMO treatment was discontinued) thereafter the viral level began to climb and was followed to day 32, where the level reached about 650 picograms DHPV DNA/ml serum.
Table 2 summarizes the results of treatment of four animals with erythromycin A 9-0-methyloxime (EMO) in DMSO and four animals with DMSO alone as determined on day 22 after termination of administration of the drug after 14 days. Virus was similarly found to be suppressed by EMO treatment in each animal and not by DMSO.

[2] = system: HTLV III; assay: Inhibition of growth of HTLV III in infected T-cell line (VB) in tissue culture; culture medium assayed by reverse transcriptase and P-24 ELISA; format: cell-based; conditions: HTLV III infected VB T-cells; for inhibition at 1 µg/mL: EMO 1 µg/ml; for inhibition at 5 µg/mL: EMO 5 µg/ml; for inhibition at 10 µg/mL: EMO 10 µg/ml; for inhibition at 20 µg/mL: EMO 20 µg/ml
Protocol: A sample of 9-0-methyloximinyl erythromycin A (EMO) was tested for capacity to inhibit growth of HTLV III in tissue culture. A T-cell line (VB) was infected with HTLV III and infected cells were incubated with 0, 1, 5, 10 and 20 µgm EMO per ml of tissue culture medium. Culture medium was recovered after 0, 1, 2, 3, and 4 days of incubation and assayed for HTLV III production by reverse transcriptase and viral antigen (P-24) testing by ELISA.

[3] = culture medium, read-out: % Reduction Reverse Transcriptase
[4] = viral antigen by ELISA, read-out: % Reduction P-24

Structure (SMILES): CCC1OC(=O)C(C)C(OC2CC(C)(OC)C(O)C(C)O2)C(C)C(OC2OC(C)CC(N(C)C)C2O)C(C)(O)CC(C)C(=NOC)C(C)C(O)C1(C)O (centres unmarked) [EMO, 9-0-methyloximinyl erythromycin A]
- % Reduction in DHBV DNA In Serum After 14 Days Treatment ([1]; 15 mg/kgm/day in DMSO, subcutaneous, 14 days, individual ducks (Animal No. 1-4), determined on day 22): 100% (2×) and 96% and 94%
- picograms of DHPV DNA/ml serum ([1]; by day 12 (EMO 15 mg/kg/day from day 8 for 14 days; 900 at day 0, maximum 1500 by day 8), low level retained until day 22): below the level of detection
- picograms of DHPV DNA/ml serum ([1]; day 32, 10 days after EMO treatment was discontinued (day 22)): about 650 picograms DHPV DNA/ml serum
- inhibition at 1 µg/mL [2, 3]: 10%
- inhibition at 1 µg/mL [2, 4]: 8%
- inhibition at 5 µg/mL [2, 3]: 50%
- inhibition at 5 µg/mL [2, 4]: 45%
- inhibition at 10 µg/mL [2, 3]: 73%
- inhibition at 10 µg/mL [2, 4]: 69%
- inhibition at 20 µg/mL [2, 3]: 82%
- inhibition at 20 µg/mL [2, 4]: 86%
